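Dose response: 5 concentrations. Exposure: 48 h. Format: 96-well plates. Endpoint: linear interpolation; highest concentration if not reached. TGI marks complete inhibition of growth.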
Legend:
Test in all cases: growth of human tumour cells (NCI), 48 h
ACHN renal = tested on: ACHN renal
DU-145 prostate = tested on: DU-145 prostate
EKVX NSCLC = tested on: EKVX NSCLC
M14 melanoma = tested on: M14 melanoma
MALME-3M melanoma = tested on: MALME-3M melanoma
NCI/ADR-RES ovarian = tested on: NCI/ADR-RES ovarian
OVCAR-4 ovarian = tested on: OVCAR-4 ovarian
SF-539 CNS = tested on: SF-539 CNS
SK-MEL-5 melanoma = tested on: SK-MEL-5 melanoma
DMS 273 small cell lung = tested on: DMS 273 small cell lung
SNB-78 CNS = tested on: SNB-78 CNS

SMILES | TGI (ACHN renal) | TGI (DU-145 prostate) | TGI (EKVX NSCLC) | TGI (M14 melanoma) | TGI (MALME-3M melanoma) | TGI (NCI/ADR-RES ovarian) | TGI (OVCAR-4 ovarian) | TGI (SF-539 CNS) | TGI (SK-MEL-5 melanoma) | TGI (DMS 273 small cell lung) | TGI (SNB-78 CNS)
CCN(CC)CCN(C)CCc1ccc(Br)cc1 | > 100 µM | > 100 µM | > 100 µM | 33.1 µM | > 100 µM | > 100 µM | > 100 µM | > 100 µM | 33.6 µM |  | 
COC(=O)n1c(C[P+](c2ccccc2)(c2ccccc2)c2ccccc2)cc2ccccc21 | 14.9 µM |  | 11.1 µM | 7.37 µM | 17.1 µM |  |  | 14.7 µM | 3.93 µM | 6.25 µM | 17.9 µM
CCOC(=O)/C(C#N)=C/N(CC)/N=C/c1ccccc1 | > 100 µM | > 100 µM | > 100 µM | > 100 µM | > 100 µM | > 100 µM | > 100 µM | > 100 µM | > 100 µM |  | 
CCCCCCOP(=O)(OCCCCCC)OC(C(=O)OC)C(F)(F)F (stereo unspecified) | > 100 µM | > 100 µM | > 100 µM | > 100 µM | > 100 µM | > 100 µM | > 100 µM | > 100 µM | > 100 µM |  | 
CO[P@]1(=O)O[C@@H](c2ccccc2)[C@H](O)[C@@]1(O)c1ccccc1 | > 100 µM | > 100 µM | > 100 µM | > 100 µM | > 100 µM | > 100 µM | > 100 µM | > 100 µM | > 100 µM |  | 
O=C1CC2(CCNCC2)C(=O)N1N1CCOCC1 | > 100 µM | > 100 µM | > 100 µM | > 100 µM | > 100 µM | > 100 µM | > 100 µM | > 100 µM | > 100 µM |  | 
O=[N+]([O-])/C=C/c1cn(CCCCCn2cc(/C=C/[N+](=O)[O-])c3ccccc32)c2ccccc12 | 13.9 µM | 7.25 µM | > 37.4 µM | 15.1 µM | 5.95 µM | 35.4 µM | 7.1 µM | 5.28 µM | 3.46 µM |  | 
CCCNC(=O)CCC(C)[C@H]1CCC2C3C(C[C@H](OC(C)=O)[C@@]21C)[C@@]1(C)CCC2(C[C@H]1C[C@H]3OC(C)=O)OOC1(CCCCC1)OO2 (stereo partly specified) | 2.62 µM | 3.36 µM | 3.95 µM | > 100 µM | 6.04 µM | 8.45 µM | 26.6 µM | 16 µM | 5.71 µM |  | 
CC/C(Cl)=N\OC(=O)Nc1ccc(F)cc1F | 3.78 µM | 32.2 µM | 20.3 µM | 22.3 µM | 12 µM | 44.5 µM | 34.8 µM | 23.5 µM | 20.6 µM |  | 
CC(C)=CCC[C@@H](C)c1c2[nH]c3ccccc3sc-2c(C)c(=O)c1=O | 10.8 µM | > 75 µM | > 75 µM | 48.5 µM | > 29.1 µM | 12.1 µM | > 75 µM | 16.3 µM | 19.7 µM |  | 
COC(=O)c1ccc(/C=C2\CCc3ccccc3C2=O)cc1 | > 100 µM | > 100 µM | > 100 µM | > 100 µM | > 100 µM | > 100 µM | > 100 µM | > 100 µM | > 100 µM |  | 
O=S(=O)(O)C1CCC(O)C2[N-]CCCC21.O=S(=O)(O)C1CCC(O)C2[N-]CCCC21.[Zn+2] (stereo unspecified) | > 100 µM | > 100 µM | > 100 µM | > 100 µM | > 100 µM | > 100 µM | > 100 µM | > 100 µM | > 100 µM |  | 
CC(=O)c1ccc(NC(=O)CSc2nc(C)nc3c2sc(=S)n3-c2ccccc2)cc1 | > 3.16 µM | > 3.16 µM | > 3.16 µM | > 3.16 µM | > 3.16 µM | > 3.16 µM | > 3.16 µM | > 3.16 µM | > 3.16 µM |  | 
CC1=C2NCN(C)N=C2C(C#N)(C#N)C1(C#N)C#N | 33 µM | > 75 µM | > 57.3 µM | > 66.4 µM | 44.2 µM | > 68.5 µM | 34.8 µM | 64.4 µM | > 71.4 µM |  | 
CC12CC(c3ccccc3O1)C(C(=O)Nc1cccc(F)c1)C(=O)N2 (stereo unspecified) | > 100 µM | > 100 µM | > 100 µM | > 100 µM | > 100 µM | 81.9 µM | > 100 µM | > 100 µM | 54.8 µM |  | 
Cc1ccc(/C=C2\CN(C)CC3C2=NC(=S)NC3c2ccc(C)cc2)cc1 (stereo unspecified) | > 100 µM | > 100 µM | > 40.3 µM | > 100 µM | > 100 µM | > 100 µM | > 100 µM | > 100 µM | > 100 µM |  | 
COC(=O)CC(NC(=O)OCc1ccccc1)C(C(=O)OCc1ccccc1)C1(C)OCCO1 (stereo unspecified) | > 100 µM |  | > 100 µM | > 100 µM | > 100 µM |  | > 100 µM | > 100 µM | 32.7 µM | > 100 µM | 
